Measurements published in patent US20090227556A1, “RECEPTOR TYROSINE KINASE INHIBITORS COMPRISING PYRIDINE AND PYRIMIDINE DERIVATIVES” (Eisai R&D Management Co., Ltd., priority 2008, published 2009).
One block for each molecule: values may come before it.

Legend:
[1] = tested on: human thyroid cancer cell line (TT); conditions: subcutaneous TT model; cited from earlier work
[2] = target: T1, VEGFR-2 tyrosine kinase (His6-VEGFR-2, cytoplasmic domain) (Homo sapiens, UniProt P35968); assay: Inhibitory activity on VEGFR-2 tyrosine kinase (HTRF); type: biochemical; conditions: biotin-poly(GT) substrate
T1 construct: made in house; host or cells: Sf9 insect cells (baculovirus, pFastBac-HT)
Description: Cytoplasmic domain of VEGFR-2 (Genbank Accession No. L04947) is a 1.7 kb DNA fragment starting from lysine 791 and contains a stop codon, as described by Tarman et al. (Oncogene, 6(9), 1677-1683, 1991). This DNA fragment was isolated from a human placental cDNA library (obtained from Clontech Laboratories, Inc.) with two primers (obtained from TaKaRa Ex Taq™ Kit, TaKaRa) using a PCR method. This DNA fragment was cloned into a baculovirus transplace vector (pFastBac™-HT (obtained from GIBCO BRL)), to obtain a recombinant construct. An insect cell (Spodoptera frugiperda 9 (Sf9)) was transfected with it, and a VEGFR-2 recombinant baculovirus solution was prepared (preparation of the recombinant baculovirus can be found in a standard textbook (Bac-to-Bac Baculovirus Expression System (GIBCO BRL)).
To Sf9 cells (3×10^8 cells) suspended in a SF-90011 culture medium containing 2% FBS (obtained from Invitrogen Corp.), the above mentioned recombinant VEGFR-2 baculovirus solution (4 ml) was added and incubated with shaking at 27° C. for 48 hours. The recombinant VEGFR-2 baculovirus-infected cell culture was centrifuged at 4° C. at 1000 rpm for 5 minutes, and the supernatant was removed. The precipitated infected cells were suspended in 80 ml of ice-cold PBS, the suspension was centrifuged at 4° C. at 1000 rpm for 5 minutes, and the supernatant was removed. The precipitated infected cells were suspended in 40 ml of ice-cold Lysis Buffer (50 mM Tris-HCl (pH 8.5), 5 mM 2-mercaptoethanol, 100 mM KCl, 1 mM PMSF, and 1% (v/v) NP-40). This suspension was centrifuged at 4° C. at 12,000 rpm for 30 min to obtain a supernatant.
This supernatant was added to a Ni-NTA agarose column (3 ml, obtained from Qiagen) which had been equilibrated with 30 ml of Buffer A (20 mM Tris-HCl (pH 8.5), 5 mM 2-mercaptoethanol, 500 mM KCl, 20 mM imidazole, and 10% (v/v) glycerol). This column was washed sequentially with 30 ml of Buffer A, 6 ml of Buffer B (20 mM Tris-HCl (pH 8.5), 5 mM 2-mercaptoethanol, 1M KCl, and 10% (v/v) glycerol), and 6 ml of Buffer A. Then, to this column, 6 ml of Buffer C (20 mM Tris-HCl (pH 8.5), 5 mM 2-mercaptoethanol, 100 mM KCl, 100 mM imidazole, and 10% (v/v) glycerol) was added to obtain an eluate. This eluate was poured into a dialysis membrane (obtained from Spectrum Laboratories) and dialyzed with 1 liter of dialysis buffer (20 mM Tris-HCl (pH 7.5), 10% (v/v) glycerol, 1 mM DTT, 0.1 mM Na3VO4, 0.1 mM EGTA) at 4° C. overnight and stored at −80° C. until use. After the dialysis, a part of the eluate was subjected to a SDS electrophoresis, and the recombinant protein (His 6-VEGFR-2, a cytoplasmic domain of VEGFR-2 fused with 6 histidine residues on its N-terminus) detected at about 100 kDa Mw in Coomassie Brilliant Blue staining was subjected to protein quantification using BSA (obtained from Sigma Co. Ltd.) as a standard.
In each well of a 96-well round bottom plate (obtained from NUNC, product number 163320), 10 μl of a solution for kinase reaction (200 mM Hepes (pH 7.4), 80 mM MgCl2, 16 mM MnCl2, 2 mM Na3VO4), 250 ng of biotin-conjugated poly (Glu 4: Tyr 1) (biotin-poly (GT) obtained from Nihon Schering K.K.) (6 μl of 1/15 diluted solution with distilled water), 15 ng of His6-VEGFR-2 (10 μl of a 1/240 diluted solution with a 0.4% BSA solution), and a test substance solution in dimethyl sulfoxide (4 μl of 1/100 dilution with 0.1% BSA) were added to make a total volume of 30 μl. To them, 10 μl of 4 μM ATP (obtained from Sigma Co. Ltd.) diluted with distilled water was added, and the resultant was incubated for 10 minutes at 30° C., followed by addition of 10 μl of 500 mM EDTA (pH 8.0) (obtained from Wako Pure Chemical Industries, Ltd.) to obtain a kinase reaction solution.
To detect tyrosine-phosphorylated biotin-poly (GT), the Homogenous Time-Resolved Fluorescence (HTRF) method was used (Analytical Biochemistry, 269, 94-104, 1999). […]

KIT = target: T2, KIT (Homo sapiens, UniProt P10721); assay: Inhibitory action on KIT (ELISA); type: biochemical; conditions: recombinant human kinase
T2 construct: purchased Carna Biosciences Inc. 08-156
Experimental: A test compound was dissolved in dimethyl sulfoxide to make a 10 mM solution, which was stored in a dark place at 4° C. until use.
Protein tyrosine kinases (recombinant human kinases) used in the study were the following products from Carna Biosciences Inc. (Kobe, Japan).
VEGFR-1 (FLT 1) (product number: 08-189) VEGFR-3 (FLT 4) (product number: 08-190) RON (product number: 08-152) RET (product number: 08-159) KIT (product number: 08-156)
Kinase activity was measured in a mobility shift assay (MSA) method (J. Biomolecular Screening, 11, 359-368, 2006) using QuickScout Screening Assist™ (Carna Biosciences Inc., commercial kit), and enzyme-linked immunoassay (ELISA).
10 μl of the test substance solution obtained by dissolving or suspending in the assay buffer (15 mM Tris, 0.01% Tween 20, 2 mM DTT, pH 7.5) (4× final concentration), or 10 μl of a solvent (4% dimethyl sulfoxide-assay buffer) was dispensed into a DELFIA Streptavidin-coated clear plate (PerkinElmer Inc., product number 4009-0010). Then, 10 μl of an ATP/substrate/metal solution of QuickScout Screening Assist™ ELISA was added. Additionally, 20 μl of the kinase solution diluted with the assay buffer was added to initiate a reaction. For a blank, only 20 μl of the assay buffer was added. The assay method was in accordance with the protocol of QuickScout Screening Assist™ ELISA. After the reaction, the absorbance at 450 nm in each well was measured using SpectraMax (Molecular Devices, California, U.S.A).

[3] = tested on: Human umbilical vein endothelial cells (HUVECs); assay: Growth inhibitory activity on human umbilical vein endothelial cells stimulated by VEGF; type: cell-based; conditions: HUVEC, 72 h, 3 days, Cell Counting Kit-8
Experimental: Human umbilical vein endothelial cells (HUVECs) were isolated according to the reported method (Shin-seikagaku jikken kouza “saibou baiyou gijutu (Cell culturing techniques)” p. 197-202) and incubated to confluence using an EGM-2 culture medium (obtained from Sanko Junyaku Co., Ltd.) in a 5% CO2 incubator (37° C.). The HUVECs were collected by a trypsin-EDTA treatment and washed with a culture medium (2% fetal bovine serum-supplemented Human endothelial SFM basal medium, obtained from Invitrogen Corp.), followed by suspending them in the medium to count the cell number. By diluting it with the medium, a 2×10^4 cells/ml cell suspension was prepared. The cell suspension was dispensed into a 96-well plate (obtained from FALCON) by 100 μl each, and incubated at 37° C. in a 5% CO2 incubator overnight. After the incubation, 50 μl of the test substance diluted with the medium was added to each well, and 50 μL of 80 ng/ml human recombinant VEGF (obtained from R&D systems, Inc.) diluted with the medium was added and further incubated for 3 days in the 5% CO2 incubator (37° C.). After the incubation, 20 μl of Cell Counting Kit-8 (obtained from DOJINDO Laboratories) was added to each well, which were incubated for about 2 hours in the 5% CO2 incubator (37° C.). After the incubation, the absorbance of the each well was measured using a plate reader MTP-500 (Corona Electric Co., Ltd) with a measurement wavelength of 450 nm and a control wavelength of 660 nm. A ratio of absorbance (%) of each well with the test substance against the wells without the test substance was determined, and based on this ratio, the concentration of the test substance required to inhibit 50% of cell proliferation (IC50) was determined and the results are shown in Table 2.

[4] = tested on: NIH3T3 cells transformed by mutated RET; conditions: cited from earlier work
[5] = tested on: NIH3T3 cells transformed by mutated RET; conditions: after injection of the cells to a nude mouse; cited from earlier work

T1 sequence (P35968 786-1356 limits assumed): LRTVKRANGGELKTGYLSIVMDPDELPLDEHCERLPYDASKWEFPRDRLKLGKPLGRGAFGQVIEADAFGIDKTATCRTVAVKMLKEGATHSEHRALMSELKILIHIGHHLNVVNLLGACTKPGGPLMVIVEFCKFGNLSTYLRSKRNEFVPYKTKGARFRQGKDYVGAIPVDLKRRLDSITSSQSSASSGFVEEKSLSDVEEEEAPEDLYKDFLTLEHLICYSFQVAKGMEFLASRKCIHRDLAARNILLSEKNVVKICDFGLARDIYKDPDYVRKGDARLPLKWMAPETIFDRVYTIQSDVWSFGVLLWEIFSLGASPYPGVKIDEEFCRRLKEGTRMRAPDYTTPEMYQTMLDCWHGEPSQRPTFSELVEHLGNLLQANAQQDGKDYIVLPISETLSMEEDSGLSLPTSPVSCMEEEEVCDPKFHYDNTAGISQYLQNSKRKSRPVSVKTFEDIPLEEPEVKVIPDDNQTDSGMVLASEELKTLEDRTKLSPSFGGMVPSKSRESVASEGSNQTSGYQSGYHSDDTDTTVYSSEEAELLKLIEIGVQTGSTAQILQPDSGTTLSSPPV
T2 sequence (P10721 26-976): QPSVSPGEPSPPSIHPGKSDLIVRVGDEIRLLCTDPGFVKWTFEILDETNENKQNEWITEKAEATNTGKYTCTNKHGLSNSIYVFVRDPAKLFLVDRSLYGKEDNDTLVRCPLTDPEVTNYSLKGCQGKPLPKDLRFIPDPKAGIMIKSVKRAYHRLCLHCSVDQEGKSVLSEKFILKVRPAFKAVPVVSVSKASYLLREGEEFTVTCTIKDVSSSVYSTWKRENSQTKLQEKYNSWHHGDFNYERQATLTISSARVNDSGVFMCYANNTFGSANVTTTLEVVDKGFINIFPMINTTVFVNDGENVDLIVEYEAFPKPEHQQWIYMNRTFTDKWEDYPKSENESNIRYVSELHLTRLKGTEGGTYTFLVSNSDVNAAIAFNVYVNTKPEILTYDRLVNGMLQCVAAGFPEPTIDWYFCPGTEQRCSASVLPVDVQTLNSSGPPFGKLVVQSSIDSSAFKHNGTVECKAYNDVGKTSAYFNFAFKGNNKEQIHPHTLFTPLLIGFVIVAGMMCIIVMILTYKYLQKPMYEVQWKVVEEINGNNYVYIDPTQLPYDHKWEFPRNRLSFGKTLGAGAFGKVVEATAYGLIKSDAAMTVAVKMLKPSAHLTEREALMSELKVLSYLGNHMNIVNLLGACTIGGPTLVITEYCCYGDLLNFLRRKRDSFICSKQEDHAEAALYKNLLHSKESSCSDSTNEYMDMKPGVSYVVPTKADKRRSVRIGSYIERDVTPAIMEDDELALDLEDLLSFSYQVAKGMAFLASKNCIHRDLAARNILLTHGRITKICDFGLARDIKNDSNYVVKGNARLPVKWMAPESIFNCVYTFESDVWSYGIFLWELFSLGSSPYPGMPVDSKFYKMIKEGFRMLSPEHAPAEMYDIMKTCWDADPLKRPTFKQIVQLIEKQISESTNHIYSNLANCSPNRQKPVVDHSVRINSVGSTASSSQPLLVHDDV

Compound: CNC(=O)c1cc(Oc2ccc(NC(=O)Nc3ccc(Cl)c(C(F)(F)F)c3)cc2)ccn1 [BAY 43-9006]
tumor size [1]: reduced a tumor size

IC50 [2]: 240 nM | IC50 (KIT): 100 nM
Compound: CN1CCN(C2CCN(C(=O)Nc3cc(Oc4ccc(NC(=O)C5(C(=O)Nc6ccc(F)cc6)CC5)c(F)c4)ccn3)CC2)CC1 [N-(2-Fluoro-4-{[2-({[4-(4-methylpiperazin-1-yl)piperidin-1-yl]carbonyl}amino)pyridin-4-yl]oxy}phenyl)-N′-(4-fluorophenyl)cyclopropane-1,1-dicarboxamide]
IC50 [3]: 82 nM

Compound: COc1cc2c(Nc3ccc(Br)cc3F)ncnc2cc1OCC1CCN(C)CC1 [ZD6474]
anchorage-independent growth [4]: suppressed anchorage-independent growth | tumorigenesis [5]: inhibited tumorigenesis
